# From paper PMC13131050, “Nicotinamide-Loaded Peptoid Nanotubes for Energy Regeneration in Acute Brain Injury” (ACS Nano, 2026)
# Where a name gives a salt, the structure may show the parent alone.
# Key:
# BV-2 cells [1] = test: Inhibition of DNS-PNT uptake by endocytic pathway inhibitors in BV-2 cells; format: cell-based, murine; conditions: inhibitor 10 μM, 1 h pre-incubation, DNS-PNT 20 μg/mL 24 h with or without inhibitor; confocal imaging
# Method: BV-2 cells were seeded at a density of 10,000 cells per well in a 96-well plate and cultured for 2 days. […] Following uptake, the medium containing PNTs was collected, and the cells were further incubated in fresh CCM for 1 or 24 h to allow exocytosis. The supernatant was subsequently collected, and the cells were washed three times with PBS. […] Fluorescence intensity was measured directly at 335/518 nm excitation and emission using a Synergy H1 multimodal microplate reader. For inhibition studies, BV-2 cells were seeded in 35 mm culture dishes (VWR) at a density of 300,000 cells and cultured for 2 days. […] The inhibitors used were chlorpromazine hydrochloride (Sigma), cytochalasin D (Sigma), amiloride hydrochloride hydrate (Sigma), sucrose (Thermo Fisher Scientific), and genistein (Sigma). − After treatment, cells were incubated with LysoTracker (75 nM, Invitrogen) for 1 h and fixed with 10% formalin phosphate buffer (Thermo Fisher Scientific) for 10 min. Subsequently, cells were stained with Tomato Lectin (1 μg/mL, 1 h) and ToPro-3 (0.1 μg/mL, 15 min; Thermo Fisher Scientific) in PBS at room temperature. Confocal images were acquired using a Nikon microscope (40× and […] oil immersion objectives, 1.30 numerical aperture; Nikon Corporation, Minato City, Tokyo, Japan).
# BV-2 cells [2] = test: MTT cell viability / cytotoxicity in healthy BV-2 cells; format: cell-based, murine; conditions: 3 doses equivalent to NAM-PNT, 24 h (Figure S11)
# Method: Murine microglia BV-2 cells were purchased from ATCC (CRL-2469) and cultured based on previous literature. Briefly, BV-2 cells were cultured in cell culture media (CCM, high-glucose, phenol red-free DMEM supplemented with 10% FBS, 1% glutamine, and 1% 100 U/mL penicillin–streptomycin) at 37 °C under a 5% CO2 atmosphere. The passage number of BV-2 cells used in this study was between 7 and 15. At 70–80% confluency, BV-2 cells were passaged and seeded in a 96-well plate for further experiments. […] Cell cytotoxicity was identified by the standard 3-(4,5-dimethylthiazol-2-yl)-2,5-diphenyltetrazolium bromide (MTT) assay (Thermo Fisher Scientific) on healthy cells. After 24 h, cells were incubated with fresh media containing 10 μL of 12 mM MTT solution in PBS for 4 h. Following the addition of 50 μL of […] (DMSO), the absorbance was recorded by a Synergy H1 multimodal microplate reader at a wavelength of 540 nm. Cell viability was measured using the alamarBlue (aBlue) Cell Viability Reagent (Thermo Fisher Scientific). […] The plate was measured directly at 560/590 nm excitation/emission fluorescence on a Synergy H1 multimodal microplate reader. Readings were normalized to those of healthy controls. […] Data were collected using a Synergy H1 multimodal microplate reader. For the OGD studies, readings were normalized to the average value of the OGD controls.
# OGD-exposed BV-2 cells = test: AlamarBlue cell viability / metabolic activity in OGD-exposed BV-2 cells; format: cell-based, murine; conditions: 10 min OGD, then treatment, normalized to OGD controls
# Method: Murine microglia BV-2 cells were purchased from ATCC (CRL-2469) and cultured based on previous literature. Briefly, BV-2 cells were cultured in cell culture media (CCM, high-glucose, phenol red-free DMEM supplemented with 10% FBS, 1% glutamine, and 1% 100 U/mL penicillin–streptomycin) at 37 °C under a 5% CO2 atmosphere. The passage number of BV-2 cells used in this study was between 7 and 15. At 70–80% confluency, BV-2 cells were passaged and seeded in a 96-well plate for further experiments. […] Following the addition of 50 μL of […] (DMSO), the absorbance was recorded by a Synergy H1 multimodal microplate reader at a wavelength of 540 nm. Cell viability was measured using the alamarBlue (aBlue) Cell Viability Reagent (Thermo Fisher Scientific). […] The plate was measured directly at 560/590 nm excitation/emission fluorescence on a Synergy H1 multimodal microplate reader. Readings were normalized to those of healthy controls. […] Data were collected using a Synergy H1 multimodal microplate reader. For the OGD studies, readings were normalized to the average value of the OGD controls.
# [3] = tested on: OGD-exposed OWH brain slices; test: Propidium iodide cell death in OGD-exposed OWH brain slices; format: cell-based, rat; conditions: OGD-exposed P10 OWH slices, cortex and striatum, 24 h treatment, n = 7
# Method: All treatments were applied topically.
# After 24 h of treatment, slices were stained with 1 mL of 5 μg/mL PI (Thermo Fisher Scientific) in SCM for 45 min under standard culture conditions as previously described. , The staining solution was placed underneath the inset. Slices were washed twice for 3 min each with sterile 1× PBS at room temperature, followed by a 1 h wash with 37 °C SCM under culturing conditions, and then fixed with 10% formalin phosphate buffer (Thermo Fisher Scientific) for 1 hour. Following two final washes with room temperature 1× PBS, slices were stored covered at 4 °C until they were ready for use. Within 2 weeks, slices were stained for 15 min with 0.1 μg/mL DAPI (Thermo Fisher Scientific) in 1× PBS at room temperature. Slices were washed twice for 3 min each with 1× PBS prior to imaging. […] For each image, DAPI+ cell nuclei (total cells) and PI+ cell nuclei (dead cells) that were also DAPI+ were counted manually in ImageJ (NIH) after applying an Otsu threshold and fluorescence cutoff to aid in visualization. , The fluorescence cutoff was kept consistent across all images. The PI+/DAPI+ cell ratio was expressed as the percentage of dead cells in an individual image.
# BV-2 cells [4] = test: Intracellular ATP level (luminescent ATP detection kit) in BV-2 cells; format: cell-based, murine
# Method: We prepared OGD media as previously described. , OGD media consisted of 120 mM sodium chloride (NaCl, MilliporeSigma), 5 mM potassium chloride (KCl, MilliporeSigma), 2 mM calcium chloride (CaCl2, MilliporeSigma), 1.25 mM monosodium phosphate anhydrous (NaH2PO4, MilliporeSigma), 2 mM magnesium sulfate (MgSO4, MilliporeSigma), 25 mM sodium bicarbonate (NaHCO3, MilliporeSigma), and 20 mM HEPES in DI water. The OGD medium was sterile-filtered (0.2 μm), titrated to pH 7.4 with 1 M hydrochloric acid (Thermo Fisher Scientific) or 1 M sodium hydroxide (Thermo Fisher Scientific), bubbled with nitrogen gas (Praxair, Danbury, CT, USA) for at least 10 min, and prewarmed to 37 °C prior to use. […] Following the addition of 50 μL of […] (DMSO), the absorbance was recorded by a Synergy H1 multimodal microplate reader at a wavelength of 540 nm. Cell viability was measured using the alamarBlue (aBlue) Cell Viability Reagent (Thermo Fisher Scientific). […] The plate was measured directly at 560/590 nm excitation/emission fluorescence on a Synergy H1 multimodal microplate reader. Readings were normalized to those of healthy controls. […] Data were collected using a Synergy H1 multimodal microplate reader. For the OGD studies, readings were normalized to the average value of the OGD controls.
# [5] = AFM dimensions (height, length) of peptoid nanotubes; format: physicochemical; conditions: nanotubes assembled from the named peptoid; ex-situ AFM on mica
# Method: The lengths of PNTs can be adjusted through sonication.
# PNTs were prepared using the slow evaporation method to self-assemble the peptoids. Typically, 1 μmol of peptoid was treated with 2 μL of trifluoroacetic acid (TFA) and dried under a flow of N2. Subsequently, 100 μL of acetonitrile was added, followed by the addition of 0.5 M NaOH. Deionized water was then added to bring the total volume to 200 μL. The samples were left at 4 °C for slow evaporation until a gel-like solution was obtained. Ex situ Atomic Force Microscopy (AFM) analysis was conducted using a Bruker MultiMode 8 in ScanAsyst mode at room temperature. For sample preparation, 1.5 μL of the self-assembled peptoid was diluted 40 times with deionized water and deposited on a mica substrate. After 5 min, Whatman filter paper was used to remove the solution, and then the dried mica substrate was further dried under N2 flow. The AFM probe consisted of silicon tips on silicon cantilevers (NCHV probes, k = 42 N/m, tip radius). Scanning electron microscopy (SEM) images were captured from the samples deposited on a silicon wafer using the Apreo2S scanning electron microscope by Thermo Fisher. The imaging process employed an ETD detector, an excitation voltage of 2 kV, a current of 0.2 nA, and a working distance of around 8 mm. […] XRD data were analyzed using custom Python scripts.
compound,measurement,setting,value
"C=C1[C@@H](C)[C@H]2[C@H](Cc3ccccc3)NC(=O)[C@]23[C@H](OC(C)=O)/C=C/[C@@](C)(O)C(=O)[C@@H](C)C/C=C/[C@H]3[C@@H]1O [Cytochalasin D, cytochalasin D]",Effect of inhibitor on DNS-PNT internalization into BV-2 cells,BV-2 cells [1],significantly suppressed PNT signals
"N=C(N)NC(=O)c1nc(Cl)c(N)nc1N [amiloride, amiloride hydrochloride hydrate]",Effect of inhibitor on DNS-PNT internalization into BV-2 cells,BV-2 cells [1],minimal impact
"CN(C)CCCN1c2ccccc2Sc2ccc(Cl)cc21 [chlorpromazine, chlorpromazine hydrochloride]",Effect of inhibitor on DNS-PNT internalization into BV-2 cells,BV-2 cells [1],minimal impact
"NC(=O)C1=CN([C@@H]2O[C@H](COP(=O)(O)OP(=O)(O)OC[C@H]3O[C@@H](n4cnc5c(N)ncnc54)[C@H](O)[C@@H]3O)[C@@H](O)[C@H]2O)C=CC1 [free NAD+, β-nicotinamide adenine dinucleotide]",Increase in cell viability with free drug (MTT),BV-2 cells [2],increase was not seen
same,Metabolic activity / cell viability (AlamarBlue) versus OGD control,OGD-exposed BV-2 cells,no effect
same,Cell death (percentage of PI+ cells),[3],did not improve cell viability
"NC(=O)c1cccnc1 [free NAM, nicotinamide]",Increase in cell viability with free drug (MTT),BV-2 cells [2],increase was not seen
same,Improvement of intracellular ATP level after OGD energy depletion,"BV-2 cells [4]; OGD-exposed BV-2 cells, free drug",did not
same,Cellular ATP level in healthy cells,"BV-2 cells [4]; healthy BV-2 cells, 24 h (Figure S16a)",limited increase compared to NAM-PNTs
O=c1c(-c2ccc(O)cc2)coc2cc(O)cc(O)c12 [genistein],Effect of inhibitor on DNS-PNT internalization into BV-2 cells,BV-2 cells [1],significantly suppressed PNT signals
OC[C@H]1O[C@@](CO)(O[C@H]2O[C@H](CO)[C@@H](O)[C@H](O)[C@H]2O)[C@@H](O)[C@@H]1O [sucrose],Effect of inhibitor on DNS-PNT internalization into BV-2 cells,BV-2 cells [1],reduced PNT uptake
Nbrpm6Nce3Nae3Nc2DNS [Pep-DNS],Height of nanotubes (ex-situ AFM),[5],7.78 ± 0.07 nm
